Measurements: PubChem BioAssay AID2060487 (Molecular Pharmacology Branch, DTP, NCI, 2025)

System: 997537-175-T-J1-PDC complex spheroid viability
Experiment: Anticancer human tumor 997537-175-T-J1-PDC patient-derived colon adenocarcinoma cell line growth inhibition [GQUAD]
Conditions: for IC50: curve of first compound; for viability, T/C: stronger effect = lower value; active = viability on the fitted dose curve at most 10% of control; inactive = the rest
How it was run: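 Viability of tumor cells grown as complex spheroids with endothelial and stromal cells, exposed to drug combinations. Top concentration at or near clinical Cmax (else 10 microM), diluted in half-log increments.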

[1] = second compound 0.0316 µM, first compound 0.0316 µM
[2] = second compound 0.0316 µM, first compound 0.1 µM
[3] = second compound 0.0316 µM, first compound 0.316 µM
[4] = second compound 0.0316 µM, first compound 1 µM
[5] = second compound 0.0316 µM, first compound 3.16 µM
[6] = second compound 0.0316 µM, first compound 10 µM
[7] = second compound 0.1 µM, first compound 0.0316 µM
[8] = second compound 0.1 µM, first compound 0.1 µM
[9] = second compound 0.1 µM, first compound 0.316 µM
[10] = second compound 0.1 µM, first compound 1 µM
[11] = second compound 0.1 µM, first compound 3.16 µM
[12] = second compound 0.1 µM, first compound 10 µM
[13] = second compound 0.316 µM, first compound 0.0316 µM
[14] = second compound 0.316 µM, first compound 0.1 µM
[15] = second compound 0.316 µM, first compound 0.316 µM
[16] = second compound 0.316 µM, first compound 1 µM
[17] = second compound 0.316 µM, first compound 3.16 µM
[18] = second compound 0.316 µM, first compound 10 µM
[19] = second compound 1 µM, first compound 0.0316 µM
[20] = second compound 1 µM, first compound 0.1 µM
[21] = second compound 1 µM, first compound 0.316 µM
[22] = second compound 1 µM, first compound 1 µM
[23] = second compound 1 µM, first compound 3.16 µM
[24] = second compound 1 µM, first compound 10 µM
[25] = second compound 3.16 µM, first compound 0.0316 µM
[26] = second compound 3.16 µM, first compound 0.1 µM
[27] = second compound 3.16 µM, first compound 0.316 µM
[28] = second compound 3.16 µM, first compound 1 µM
[29] = second compound 3.16 µM, first compound 3.16 µM
[30] = second compound 3.16 µM, first compound 10 µM
[31] = second compound 10 µM, first compound 0.0316 µM
[32] = second compound 10 µM, first compound 0.1 µM
[33] = second compound 10 µM, first compound 0.316 µM
[34] = second compound 10 µM, first compound 1 µM
[35] = second compound 10 µM, first compound 3.16 µM
[36] = second compound 10 µM, first compound 10 µM
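Also: spheroids exposed to the agents for 7 days.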
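For viability, T/C in this document: 100% = DMSO vehicle control viability.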

C=CCn1c(=O)c2cnc(Nc3ccc(N4CCN(C)CC4)cc3)nc2n1-c1cccc(C(C)(C)O)n1 + CN(C)c1ccc(Nc2c3ccc(NC(=O)CCN4CCCC4)cc3nc3cc(NC(=O)CCN4CCCC4)ccc23)cc1
2.16 µM: IC50 (second compound 0.1 µM)
2.86 µM: IC50 (second compound 1 µM)
6.68 µM: IC50 (second compound 0.316 µM)
2.42 µM: IC50 (second compound 3.16 µM)
2.1 µM: IC50 (second compound 0.0316 µM)
inactive: viability, T/C [1] 104% | viability, T/C [2] 93% | viability, T/C [3] 91.8% | viability, T/C [4] 74.4% | viability, T/C [5] 35.5% | viability, T/C [6] 31.7% | viability, T/C [7] 95.8% | viability, T/C [8] 85.2% | viability, T/C [9] 89.1% | viability, T/C [10] 67.5% | viability, T/C [11] 41.2% | viability, T/C [12] 25.6% | viability, T/C [13] 101% | viability, T/C [14] 73.8% | viability, T/C [15] 86.5% | viability, T/C [16] 71.9% | viability, T/C [17] 84.2% | viability, T/C [18] 31.8% | viability, T/C [19] 83.1% | viability, T/C [20] 72% | viability, T/C [21] 82.1% | viability, T/C [22] 75.8% | viability, T/C [23] 47.5% | viability, T/C [24] 26.4% | viability, T/C [25] 74.3% | viability, T/C [26] 85.9% | viability, T/C [27] 88% | viability, T/C [28] 68.5% | viability, T/C [29] 45.1% | viability, T/C [30] 33.3% | viability, T/C [31] 66.1% | viability, T/C [32] 92.8% | viability, T/C [33] 111% | viability, T/C [34] 74.2% | viability, T/C [35] 58.5% | viability, T/C [36] 39.9%
5.06 µM: IC50 (second compound 10 µM)

Nc1ccn(C2OC(CO)C(O)C2(F)F)c(=O)n1 (centres undefined) + Cc1[nH]c2ccc(F)cc2c1-c1nc2c3cccnc3c3ncccc3c2[nH]1
inactive: viability, T/C [1] 106% | viability, T/C [2] 82.5% | viability, T/C [3] 98.7% | viability, T/C [4] 80.1% | viability, T/C [5] 86.2% | viability, T/C [6] 97.4% | viability, T/C [7] 107% | viability, T/C [8] 87.2% | viability, T/C [9] 91.5% | viability, T/C [10] 74.2% | viability, T/C [11] 87.4% | viability, T/C [12] 87.5% | viability, T/C [13] 99.2% | viability, T/C [14] 84.6% | viability, T/C [15] 84.1% | viability, T/C [16] 73.9% | viability, T/C [17] 90.4% | viability, T/C [18] 70.2% | viability, T/C [19] 103% | viability, T/C [20] 96.3% | viability, T/C [21] 94.7% | viability, T/C [22] 98.2% | viability, T/C [23] 82.6% | viability, T/C [24] 93.5% | viability, T/C [25] 77.4% | viability, T/C [26] 69% | viability, T/C [27] 76% | viability, T/C [28] 73.1% | viability, T/C [29] 83% | viability, T/C [30] 84.8% | viability, T/C [31] 78.3% | viability, T/C [32] 81.4% | viability, T/C [33] 90.4% | viability, T/C [34] 87.2% | viability, T/C [35] 80.1% | viability, T/C [36] 87.5%
> 10 µM: IC50 (second compound 0.0316 µM) | IC50 (second compound 0.1 µM) | IC50 (second compound 0.316 µM) | IC50 (second compound 1 µM) | IC50 (second compound 3.16 µM) | IC50 (second compound 10 µM)
